Values quoted from earlier work as cited in US10307392B2, “Compound and method for treatment of diseases and disorders” (priority 2017, dated 2019).
Like-named read-outs stand apart in the source and are kept apart here.

What was measured:
spasticity = conditions: in vivo
[1] = system: subjects with noninsulin-treated type 2 diabetes
Parkinson's disease = conditions: oral, started with 150 mg/day, 4 weeks
[2] = system: rat cortical neuron cultures exposed to toxic levels of the neurotransmitter, glutamate; conditions: for prevention of glutamate toxicity: isolated or synthetic cannabinoid, in vitro neuronal cultures exposed to glutamate; for NMDA, AMPA and kainate receptor mediated neurotoxicity: not affected by cannabinoid receptor antagonist
[3] = system: females with severe somatoform and dysautonomic syndrome following HPV vaccination; parameters: dose or concentration left out as unconfirmed; conditions: up to a maximum dose of CBD per day; 12 females
[4] = cyclic voltametry and fenton reaction-based system
[5] = system: PBQ-induced writhing in mice; conditions: for reducing analgesia and inflammation: mouse, in vivo
MS patients = conditions: 13 weeks' follow-up
[6] = system: patients receiving Marinol

## CCCCCCC(C)(C)c1cc(O)c2c(c1)OC(C)(C)C1CCC(=O)CC21 (stereo not shown) [Cesamet]
spasticity
  reducing spasticity: positive results

## CCCc1cc(O)c2c(c1)OC(C)(C)[C@@H]1CCC(C)=C[C@@H]21 [THCV]
[1]; 10 mg THCV per day
  tolerability: well tolerated

## C=C(C)[C@@H]1CCC(C)=C[C@H]1c1c(O)cc(CCCCC)cc1O [CBD, cannabidiol]
Parkinson's disease
  adverse effect during the treatment: no adverse effect
Neuronal cultures
  hydroperoxide toxicity in neurons: reduce hydroperoxide toxicity
[1]; 200 mg CBD per day, 62 subjects in study
  tolerability: well tolerated
[2]
  protective capacity against glutamate toxicity, head to head with other antioxidants: superior to both alpha-tocopherol and ascorbate
  prevention of glutamate toxicity: prevented to some extent
  NMDA, AMPA and kainate receptor mediated neurotoxicity: reduced
[3]
  tolerability: well tolerated
[4]
  antioxidant activity: potent antioxidants
[5]; oral administration, mice
  inhibition of PBQ-induced writhing: most effective

## CCCCCc1cc(O)c2c(c1)OC(C)(C)c1ccc(C)cc1-2 [CBN, cannabinol]
[5]
  reducing analgesia and inflammation: least effective

## CCCCCc1cc(O)c2c(c1)OC(C)(C)[C@@H]1CCC(C)=C[C@@H]21 [THC, delta-9-tetrahydrocannabinol]
MS patients; placebo 0.92 (6.56)
  Mean (SD) change in total Ashworth score (baseline minus follow-up): 1.86 (7.95)
MS patients; placebo 1.04 (4.20)
  Mean (SD) change in Ashworth score, lower-body muscle groups: 1.39 (5.21)
MS patients; placebo −0.11 (4.04)
  Mean (SD) change in Ashworth score, upper-body muscle groups: 0.48 (4.70)
[2]
  prevention of glutamate toxicity: prevented to some extent
  NMDA, AMPA and kainate receptor mediated neurotoxicity: reduced
[4]
  antioxidant activity: potent antioxidants
[5]
  reducing analgesia and inflammation: least effective

## CCCCCc1cc(O)c2c(c1)OC(C)(C)[C@@H]1CCC(C)=C[C@@H]21 [Marinol]
[6]; antiemetic clinical trials
  patients reporting cannabinoid dose-related psychotropic effect: 24%
[6]; during the first 2 weeks
  patients reporting a CNS adverse reaction: About 25%
[6]; each week for the next 6 weeks
  patients reporting a CNS adverse reaction: about 4%
[6]; lower dose appetite stimulant clinical trials
  patients reporting cannabinoid dose-related psychotropic effect: 8%
[6]; patients with AIDS, placebo-controlled clinical trials
  patients reporting adverse experiences involving the CNS: 33%
spasticity
  reducing spasticity: positive results
